Measurements: US20210069157A1, “AGENT FOR TREATMENT OF PBC” (Kowa Company, Ltd, priority 2016, published 2021)

Legend:
[1] = test system: patients with dyslipidemia showing a high level of triglyceride (TG); experiment: Pooled clinical trial data (8 tests, 12 weeks or more): effects on ALP and total bilirubin; assay type: in vivo, human; design: ALP level, Rate of change (LSmean) / total bilirubin level, Rate of change (LSmean): unit not given here; details: for ALP level, Rate of change (LSmean) / total bilirubin level, Rate of change (LSmean): 12 weeks vs baseline; for ALP level, Rate of change (LSmean): placebo 0.5; for total bilirubin level, Rate of change (LSmean): placebo 6.1
Description: Compound. A was administered at a dose of 0.05 to 0.4 mg per day to Compound A group. […] Note that comparisons between the groups were investigated by using covariance analysis with baseline levels used as covariates.

[2] = test system: patients with dyslipidemia showing a high level of TG being treated with ursodeoxycholic acid; experiment: Pooled clinical trial data, subset being treated with ursodeoxycholic acid: effects on ALP and total bilirubin; assay type: in vivo, human
Description: Data of patients being treated with ursodeoxycholic acid (15 cases in total) were extracted from the data obtained in a clinical trial (8 tests with an administration period of 12 weeks or more) of Compound A, which had been performed for patients with dyslipidemia showing a high level of TG, the effects of Compound A for the ALP and the total bilirubin were investigated. Compound A was administered at a dose of 0.05 to 0.4 mg per day to Compound A group. Further, placebo was administered to a control group. Each compound was administered to Compound A group and a control group for 12 weeks, and changes in the levels of ALP before and after the administration are shown in Table 3 and FIG. 3, and changes in the levels of total bilirubin before and after the administration are shown in Table 4 and FIG. 4. Note that comparisons between the groups were investigated by using covariance analysis with baseline levels used as covariates.

[3] = 0.05 to 0.4 mg per day, 12 weeks
[4] = patients being treated with ursodeoxycholic acid, 12 weeks

## CC[C@@H](Oc1cccc(CN(CCCOc2ccc(OC)cc2)c2nc3ccccc3o2)c1)C(=O)O [Compound A, (R)-2-[3-[[N-(benzoxazol-2-yl)-N-3-(4-methoxyphenoxy)propyl]aminomethyl]phenoxy] butyric acid]
[1]; [3]
  effect on level of ALP as compared with placebo: decreases dose-dependently
  effect on level of total bilirubin as compared with placebo: decreases dose-dependently
[1]; Compound A 0.05 mg/day
  ALP level, Rate of change (LSmean): −13.4
  total bilirubin level, Rate of change (LSmean): −16.4
[1]; Compound A 0.05 mg/day, 12 weeks, n 37, baseline 0.8
  total bilirubin level, 12 Weeks: 0.6 mg/dL
[1]; Compound A 0.05 mg/day, 12 weeks, n 37, baseline 234.4
  ALP level, 12 Weeks: 201.5 IU/L
[1]; Compound A 0.1 mg/day
  ALP level, Rate of change (LSmean): −22.1
  total bilirubin level, Rate of change (LSmean): −7.7
[1]; Compound A 0.1 mg/day, 12 weeks, n 127, baseline 0.8
  total bilirubin level, 12 Weeks: 0.7 mg/dL
[1]; Compound A 0.1 mg/day, 12 weeks, n 127, baseline 228.4
  ALP level, 12 Weeks: 177.4 IU/L
[1]; Compound A 0.2 mg/day
  ALP level, Rate of change (LSmean): −29.4
  total bilirubin level, Rate of change (LSmean): −11.9
[1]; Compound A 0.2 mg/day, 12 weeks, n 846, baseline 0.8
  total bilirubin level, 12 Weeks: 0.7 mg/dL
[1]; Compound A 0.2 mg/day, 12 weeks, n 846, baseline 235.6
  ALP level, 12 Weeks: 164.7 IU/L
[1]; Compound A 0.4 mg/day
  ALP level, Rate of change (LSmean): −35.3
  total bilirubin level, Rate of change (LSmean): −10.4
[1]; Compound A 0.4 mg/day, 12 weeks, n 319, baseline 0.8
  total bilirubin level, 12 Weeks: 0.6 mg/dL
[1]; Compound A 0.4 mg/day, 12 weeks, n 319, baseline 225.1
  ALP level, 12 Weeks: 145.0 IU/L
[1]; Compound A at a dose of 0.1 mg or more, 12 weeks
  effect on level of ALP compared with fenofibrate 200 mg per day: decreases the level of ALP more strongly than the fenofibrate at the maximum clinical dose
[2]; Compound A 0.05 to 0.4 mg per day, 12 weeks vs baseline, patients on UDCA, placebo 41.2
  total bilirubin level, Rate of change (LSmean): −18.5
[2]; Compound A 0.05 to 0.4 mg per day, 12 weeks vs baseline, patients on UDCA, placebo −1.1
  ALP level, Rate of change (LSmean): −22.6
[2]; Compound A 0.05 to 0.4 mg per day, 12 weeks, patients on UDCA, n 13, baseline 0.7
  total bilirubin level, 12 Weeks: 0.6 mg/dL
[2]; Compound A 0.05 to 0.4 mg per day, 12 weeks, patients on UDCA, n 13, baseline 295.5
  ALP level, 12 Weeks: 229.5 IU/L
[2]; [4]
  effect on level of ALP: decreases
  effect on level of total bilirubin: decreases
